1 compound from ChEMBL document CHEMBL5726927, “Heterocyclic derivatives as modulators of kinase activity” (2019) can be followed below.

A word on the pIC50: it is the negative decadic logarithm of the IC50, by convention in mol/L.

A short description of this assay: P70S6K Enzyme Assay: P70S6K inhibitor compounds were diluted and plated in 96 well plates. A reaction mixture including the following components was then added to the compound plate to initiate the enzyme reaction; P70S6K (3 nM, T412E mutant, Millipore) was mixed with 24 μM ATP in an assay buffer containing 100 mM Hepes (pH 7.5), 5 mM MgCl2, 1 mM DTT, 0.015% Brij and 1 μM of the substrate peptide FITC-AHA-AKRRRLSSLRA-OH (derived from the S6 ribosomal protein sequence, FITC=fluorescein isothiocyanate, AHA=6-aminohexanoic acid). The reaction was incubated for 90 min at 25° C., before the addition of 10 mM EDTA to stop the reaction. The proportion of substrate and product (phosphorylated) peptide was analysed on a Caliper Life Sciences Lab Chip 3000, using a pressure of −1.4 psi, and upstream and downstream voltages of −3000 and −700 respectively. Product peaks were resolved before substrate peaks on the resulting chromatograms.

pIC50: −log10 of the molar value.

In the case of `O=C1CNc2ncnc(N3CCN(C(CN4CCCC4)c4ccc(F)c(Cl)c4)CC3)c2N1` (stereo unspecified), the pIC50 is < 6.00.
